Source: ChEMBL document CHEMBL5465560, “Selectivity Literature for EUbOPEN Chemogenomic Library” (2024)
One block for each compound: values may come before it.

Assays:
[1] = target: T1, Aurora kinase C (Homo sapiens) (UniProt Q9UQB9); assay: Selectivity interaction (KinomeScan (DiscoverX)) EUB0001049a AURKC; conditions: at 1 µM
T1 sequence (whole entry): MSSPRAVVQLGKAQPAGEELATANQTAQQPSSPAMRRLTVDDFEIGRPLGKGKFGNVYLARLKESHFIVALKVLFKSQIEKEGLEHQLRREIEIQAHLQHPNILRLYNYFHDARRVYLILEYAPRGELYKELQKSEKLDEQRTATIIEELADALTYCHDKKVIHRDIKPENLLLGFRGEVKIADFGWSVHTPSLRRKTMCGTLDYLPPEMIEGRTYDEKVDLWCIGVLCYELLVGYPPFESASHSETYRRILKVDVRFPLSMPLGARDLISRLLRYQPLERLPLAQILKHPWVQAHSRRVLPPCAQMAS

[2] = target: Calcium/calmodulin-dependent protein kinase kinase 2 (Homo sapiens) (UniProt Q96RR4); assay: Selectivity interaction (ActivX KiNativ screen (kinase selectivity in THP-1 cell lysates)) EUB0000639a CAMKK2; assay type: subcellular; conditions: lysate
[3] = target: Serine/threonine-protein kinase WNK1 (Homo sapiens) (UniProt Q9H4A3); assay: Selectivity interaction (ActivX KiNativ screen (kinase selectivity in THP-1 cell lysates)) EUB0000639a WNK1; assay type: subcellular; conditions: lysate
[4] = target: Dual specificity protein kinase CLK1 (Homo sapiens, UniProt P49759); assay: Selectivity interaction (Enzymatic assay) EUB0001550a CLK1
[5] = target: 5-hydroxytryptamine receptor 2A (Homo sapiens, UniProt P28223); assay: Selectivity interaction (Serotonin 5HT2A Calcium flux assay, agonist and antagonist mode ) EUB0000877a HTR2A
[6] = target: Phosphatidylinositol 4-kinase type 2-beta (Homo sapiens) (UniProt Q8TCG2); assay: Selectivity interaction (Adapta Assay) EUB0001632a PI4K2B; conditions: at 10 µM
[7] = target: T2, Ephrin type-A receptor 3 (Homo sapiens) (UniProt P29320); assay: Selectivity interaction (KinomeScan (DiscoverX)) EUB0000595a EPHA3; conditions: at 10 µM
T2 sequence (whole entry): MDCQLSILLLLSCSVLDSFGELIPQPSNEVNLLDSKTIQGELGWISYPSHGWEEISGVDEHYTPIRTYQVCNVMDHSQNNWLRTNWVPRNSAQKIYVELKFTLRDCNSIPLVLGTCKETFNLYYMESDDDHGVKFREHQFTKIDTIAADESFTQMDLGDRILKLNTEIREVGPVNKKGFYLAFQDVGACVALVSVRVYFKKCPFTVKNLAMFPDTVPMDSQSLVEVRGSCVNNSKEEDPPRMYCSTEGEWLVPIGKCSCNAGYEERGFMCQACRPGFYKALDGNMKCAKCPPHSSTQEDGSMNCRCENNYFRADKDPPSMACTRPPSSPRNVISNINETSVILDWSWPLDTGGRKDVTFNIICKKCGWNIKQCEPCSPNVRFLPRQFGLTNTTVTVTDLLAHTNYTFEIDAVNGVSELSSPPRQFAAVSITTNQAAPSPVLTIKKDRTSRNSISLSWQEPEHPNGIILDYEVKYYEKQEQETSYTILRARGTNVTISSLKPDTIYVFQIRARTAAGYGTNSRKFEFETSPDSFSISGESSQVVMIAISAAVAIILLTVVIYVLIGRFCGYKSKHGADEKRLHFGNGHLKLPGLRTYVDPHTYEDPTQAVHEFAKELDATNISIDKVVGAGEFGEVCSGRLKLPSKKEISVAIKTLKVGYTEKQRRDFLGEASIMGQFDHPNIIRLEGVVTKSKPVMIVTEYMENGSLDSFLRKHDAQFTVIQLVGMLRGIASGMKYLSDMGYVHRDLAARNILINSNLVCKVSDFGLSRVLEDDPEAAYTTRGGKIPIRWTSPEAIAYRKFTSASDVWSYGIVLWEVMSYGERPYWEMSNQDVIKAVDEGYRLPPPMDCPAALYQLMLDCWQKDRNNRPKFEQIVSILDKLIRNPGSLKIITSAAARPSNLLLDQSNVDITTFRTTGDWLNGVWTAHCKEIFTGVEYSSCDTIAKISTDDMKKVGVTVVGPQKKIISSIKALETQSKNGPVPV

[8] = target: TRAF2 and NCK-interacting protein kinase (Homo sapiens) (UniProt Q9UKE5); assay: Selectivity interaction (KinomeScan (DiscoverX)) EUB0000595a TNIK; conditions: at 10 µM
[9] = target: T3, Megakaryocyte-associated tyrosine-protein kinase (Homo sapiens) (UniProt P42679); assay: Selectivity interaction (KinomeScan (DiscoverX)) EUB0001079a MATK; conditions: at 1 µM
T3 sequence (whole entry): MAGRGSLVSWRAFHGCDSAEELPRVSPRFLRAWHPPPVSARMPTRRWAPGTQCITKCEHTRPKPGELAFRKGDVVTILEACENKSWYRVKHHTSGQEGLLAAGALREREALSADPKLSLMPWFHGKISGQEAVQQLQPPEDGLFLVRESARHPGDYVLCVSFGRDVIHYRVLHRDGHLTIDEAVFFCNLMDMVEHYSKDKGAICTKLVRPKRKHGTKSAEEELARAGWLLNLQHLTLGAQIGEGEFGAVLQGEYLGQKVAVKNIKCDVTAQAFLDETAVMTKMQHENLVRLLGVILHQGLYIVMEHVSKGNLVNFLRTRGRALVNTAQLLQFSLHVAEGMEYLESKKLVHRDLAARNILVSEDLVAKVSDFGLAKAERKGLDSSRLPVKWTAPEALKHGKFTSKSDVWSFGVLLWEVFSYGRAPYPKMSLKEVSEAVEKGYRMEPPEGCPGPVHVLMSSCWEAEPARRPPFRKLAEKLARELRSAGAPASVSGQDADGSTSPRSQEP

[10] = target: Casein kinase I isoform alpha (Homo sapiens, UniProt P48729); assay: Selectivity interaction (KinomeScan (DiscoverX)) EUB0001079a CSNK1A1; conditions: at 1 µM
[11] = target: Ephrin type-A receptor 5 (Homo sapiens) (UniProt P54756); assay: Selectivity interaction (KinomeScan (DiscoverX)) EUB0000045b EPHA5
[12] = target: Rho-associated protein kinase 2 (Homo sapiens, UniProt O75116); assay: Selectivity interaction (KinomeScan (DiscoverX)) EUB0001619a ROCK2; conditions: at 1 µM

Serine/threonine-protein kinase WNK1 (Homo sapiens), sequence (Q9H4A3 whole entry, looked up): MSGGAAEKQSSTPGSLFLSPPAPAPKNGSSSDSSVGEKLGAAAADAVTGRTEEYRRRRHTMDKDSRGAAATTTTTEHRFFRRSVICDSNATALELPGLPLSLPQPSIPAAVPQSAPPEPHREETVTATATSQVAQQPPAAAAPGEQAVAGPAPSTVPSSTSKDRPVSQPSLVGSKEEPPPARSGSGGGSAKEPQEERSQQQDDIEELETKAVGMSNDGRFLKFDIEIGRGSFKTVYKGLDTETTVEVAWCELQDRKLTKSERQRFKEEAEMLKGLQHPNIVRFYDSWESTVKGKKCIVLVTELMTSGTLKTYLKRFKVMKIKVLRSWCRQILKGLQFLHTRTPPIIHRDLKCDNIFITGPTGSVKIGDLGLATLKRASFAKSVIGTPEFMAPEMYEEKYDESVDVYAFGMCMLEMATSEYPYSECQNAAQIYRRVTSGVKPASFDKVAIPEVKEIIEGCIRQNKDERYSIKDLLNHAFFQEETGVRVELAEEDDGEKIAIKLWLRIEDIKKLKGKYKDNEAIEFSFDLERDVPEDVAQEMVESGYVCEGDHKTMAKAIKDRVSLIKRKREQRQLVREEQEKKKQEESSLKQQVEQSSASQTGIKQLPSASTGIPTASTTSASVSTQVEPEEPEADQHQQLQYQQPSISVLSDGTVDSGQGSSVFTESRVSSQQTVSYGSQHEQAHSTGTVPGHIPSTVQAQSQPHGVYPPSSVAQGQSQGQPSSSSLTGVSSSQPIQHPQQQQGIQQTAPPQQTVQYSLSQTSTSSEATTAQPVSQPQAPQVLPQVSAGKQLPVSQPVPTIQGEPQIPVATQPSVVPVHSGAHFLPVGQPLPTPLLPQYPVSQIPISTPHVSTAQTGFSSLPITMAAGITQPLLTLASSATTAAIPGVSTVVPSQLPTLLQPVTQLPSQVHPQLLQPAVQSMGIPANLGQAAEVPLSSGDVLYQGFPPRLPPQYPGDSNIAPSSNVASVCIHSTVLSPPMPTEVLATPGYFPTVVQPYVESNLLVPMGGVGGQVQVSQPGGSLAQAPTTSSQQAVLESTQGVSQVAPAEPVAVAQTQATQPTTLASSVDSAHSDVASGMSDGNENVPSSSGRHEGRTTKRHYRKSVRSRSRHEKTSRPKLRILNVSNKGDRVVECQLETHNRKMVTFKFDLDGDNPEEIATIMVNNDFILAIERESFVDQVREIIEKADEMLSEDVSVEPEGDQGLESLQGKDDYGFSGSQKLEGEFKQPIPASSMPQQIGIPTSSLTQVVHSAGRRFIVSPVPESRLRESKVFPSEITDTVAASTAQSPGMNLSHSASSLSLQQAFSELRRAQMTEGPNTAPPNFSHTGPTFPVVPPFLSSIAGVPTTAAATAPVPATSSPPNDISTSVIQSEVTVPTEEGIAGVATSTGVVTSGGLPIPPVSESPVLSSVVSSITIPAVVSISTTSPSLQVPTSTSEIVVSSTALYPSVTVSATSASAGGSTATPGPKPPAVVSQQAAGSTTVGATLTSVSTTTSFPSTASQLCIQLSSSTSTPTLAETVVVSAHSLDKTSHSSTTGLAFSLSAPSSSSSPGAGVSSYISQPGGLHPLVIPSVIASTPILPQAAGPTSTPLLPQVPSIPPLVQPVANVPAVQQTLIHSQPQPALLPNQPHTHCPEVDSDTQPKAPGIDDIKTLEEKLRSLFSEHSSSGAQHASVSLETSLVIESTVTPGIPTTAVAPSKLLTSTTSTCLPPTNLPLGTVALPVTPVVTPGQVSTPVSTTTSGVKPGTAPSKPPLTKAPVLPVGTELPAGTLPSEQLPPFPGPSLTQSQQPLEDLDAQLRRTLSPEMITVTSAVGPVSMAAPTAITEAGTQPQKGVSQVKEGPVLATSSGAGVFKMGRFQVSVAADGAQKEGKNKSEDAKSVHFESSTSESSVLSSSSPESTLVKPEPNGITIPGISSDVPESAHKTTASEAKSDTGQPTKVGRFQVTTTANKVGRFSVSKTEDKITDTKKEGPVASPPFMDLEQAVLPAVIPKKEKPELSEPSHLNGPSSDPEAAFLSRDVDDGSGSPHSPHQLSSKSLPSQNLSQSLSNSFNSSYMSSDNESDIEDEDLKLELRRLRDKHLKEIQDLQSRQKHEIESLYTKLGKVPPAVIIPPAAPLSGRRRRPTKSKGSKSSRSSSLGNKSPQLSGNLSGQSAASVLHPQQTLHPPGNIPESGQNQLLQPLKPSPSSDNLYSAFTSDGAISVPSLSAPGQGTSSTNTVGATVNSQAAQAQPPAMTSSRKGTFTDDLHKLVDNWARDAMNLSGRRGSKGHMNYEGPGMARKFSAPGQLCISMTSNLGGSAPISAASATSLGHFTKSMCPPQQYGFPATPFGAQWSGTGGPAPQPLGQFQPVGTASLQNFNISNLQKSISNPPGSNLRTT
Calcium/calmodulin-dependent protein kinase kinase 2 (Homo sapiens), sequence (Q96RR4 2-588 limits assumed): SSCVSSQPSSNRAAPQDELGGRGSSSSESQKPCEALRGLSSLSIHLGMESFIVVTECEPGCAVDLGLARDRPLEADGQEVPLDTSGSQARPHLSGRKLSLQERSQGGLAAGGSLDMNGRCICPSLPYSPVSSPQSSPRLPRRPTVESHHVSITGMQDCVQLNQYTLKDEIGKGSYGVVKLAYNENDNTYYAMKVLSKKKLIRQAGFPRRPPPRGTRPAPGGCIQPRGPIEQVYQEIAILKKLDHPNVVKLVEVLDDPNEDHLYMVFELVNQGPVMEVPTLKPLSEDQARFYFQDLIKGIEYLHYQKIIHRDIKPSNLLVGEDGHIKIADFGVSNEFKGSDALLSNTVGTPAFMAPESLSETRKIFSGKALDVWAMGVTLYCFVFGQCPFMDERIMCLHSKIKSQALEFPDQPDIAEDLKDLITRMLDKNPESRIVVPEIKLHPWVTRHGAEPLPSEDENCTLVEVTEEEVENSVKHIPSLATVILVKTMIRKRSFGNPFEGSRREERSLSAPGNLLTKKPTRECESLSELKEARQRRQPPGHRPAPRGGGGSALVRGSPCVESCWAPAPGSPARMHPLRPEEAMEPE
Ephrin type-A receptor 5 (Homo sapiens), sequence (P54756 whole entry): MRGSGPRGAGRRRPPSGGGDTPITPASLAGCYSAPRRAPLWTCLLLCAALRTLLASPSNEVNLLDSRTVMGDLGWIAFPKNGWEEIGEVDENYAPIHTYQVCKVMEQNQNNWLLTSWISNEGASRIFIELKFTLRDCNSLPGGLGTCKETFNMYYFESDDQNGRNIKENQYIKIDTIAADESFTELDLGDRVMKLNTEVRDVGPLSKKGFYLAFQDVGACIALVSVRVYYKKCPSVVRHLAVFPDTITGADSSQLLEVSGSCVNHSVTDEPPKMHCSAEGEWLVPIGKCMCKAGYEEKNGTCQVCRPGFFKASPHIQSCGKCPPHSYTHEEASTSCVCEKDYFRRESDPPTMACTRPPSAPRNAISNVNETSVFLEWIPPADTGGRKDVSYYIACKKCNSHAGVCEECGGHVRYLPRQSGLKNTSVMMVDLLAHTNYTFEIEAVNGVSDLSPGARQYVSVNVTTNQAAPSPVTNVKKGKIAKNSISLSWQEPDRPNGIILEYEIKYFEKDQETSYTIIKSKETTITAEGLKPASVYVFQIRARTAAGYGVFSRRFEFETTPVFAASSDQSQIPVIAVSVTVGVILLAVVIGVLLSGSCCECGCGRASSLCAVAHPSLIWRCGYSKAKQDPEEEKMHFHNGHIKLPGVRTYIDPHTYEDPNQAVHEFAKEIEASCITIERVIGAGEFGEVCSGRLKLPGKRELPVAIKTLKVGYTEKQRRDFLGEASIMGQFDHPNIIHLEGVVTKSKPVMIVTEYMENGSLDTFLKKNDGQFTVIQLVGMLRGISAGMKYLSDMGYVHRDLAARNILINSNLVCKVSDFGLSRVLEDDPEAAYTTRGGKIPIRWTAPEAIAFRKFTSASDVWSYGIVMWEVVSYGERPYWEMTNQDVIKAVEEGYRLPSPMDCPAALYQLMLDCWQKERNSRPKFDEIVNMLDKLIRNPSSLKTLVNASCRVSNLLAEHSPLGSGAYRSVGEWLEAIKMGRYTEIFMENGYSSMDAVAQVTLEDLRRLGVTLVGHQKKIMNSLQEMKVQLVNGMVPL
5-hydroxytryptamine receptor 2A, sequence (P28223 whole entry): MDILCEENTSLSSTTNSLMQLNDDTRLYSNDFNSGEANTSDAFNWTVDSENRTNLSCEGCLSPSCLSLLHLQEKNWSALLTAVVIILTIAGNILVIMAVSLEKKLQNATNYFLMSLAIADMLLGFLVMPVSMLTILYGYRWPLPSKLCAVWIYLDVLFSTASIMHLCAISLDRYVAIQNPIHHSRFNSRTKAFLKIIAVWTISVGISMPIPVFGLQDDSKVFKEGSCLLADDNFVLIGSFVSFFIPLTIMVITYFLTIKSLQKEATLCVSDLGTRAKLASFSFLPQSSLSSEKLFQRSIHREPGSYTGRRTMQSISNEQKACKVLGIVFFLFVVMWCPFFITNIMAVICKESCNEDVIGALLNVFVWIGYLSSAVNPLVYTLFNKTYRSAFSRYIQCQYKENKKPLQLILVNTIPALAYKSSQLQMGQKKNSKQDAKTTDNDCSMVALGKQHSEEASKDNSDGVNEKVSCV
Phosphatidylinositol 4-kinase type 2-beta (Homo sapiens), sequence (Q8TCG2 whole entry): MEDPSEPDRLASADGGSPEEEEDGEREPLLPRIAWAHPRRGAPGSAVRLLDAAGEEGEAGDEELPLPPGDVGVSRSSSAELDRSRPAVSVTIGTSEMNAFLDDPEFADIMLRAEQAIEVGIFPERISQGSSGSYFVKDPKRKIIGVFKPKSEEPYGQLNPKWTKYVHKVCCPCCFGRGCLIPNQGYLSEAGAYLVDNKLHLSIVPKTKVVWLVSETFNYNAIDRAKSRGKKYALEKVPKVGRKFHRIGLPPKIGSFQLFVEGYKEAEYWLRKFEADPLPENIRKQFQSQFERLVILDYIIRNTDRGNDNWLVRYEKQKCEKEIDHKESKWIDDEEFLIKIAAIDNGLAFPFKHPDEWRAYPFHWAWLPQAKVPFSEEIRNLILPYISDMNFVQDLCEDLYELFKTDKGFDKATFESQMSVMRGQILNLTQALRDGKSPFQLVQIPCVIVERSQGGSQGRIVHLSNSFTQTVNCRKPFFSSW

Compound: COc1cc(Nc2nc(C)cc(-c3cnn4nc(OC)ccc34)n2)cc(C(F)(F)F)c1
% of control [1]: 84%

% of inhibition ([2]; at 0.01 µM): 5.1%
% of inhibition ([2]; at 0.04 µM): 9.8%
% of inhibition ([2]; at 0.2 µM): 8.1%
% of inhibition ([2]; at 1 µM): 37.6%
% of inhibition ([2]; at 5 µM): 63.5%
% of inhibition ([3]; at 0.01 µM): 10.1%
% of inhibition ([3]; at 0.04 µM): 23.3%
% of inhibition ([3]; at 0.2 µM): 9.7%
% of inhibition ([3]; at 1 µM): 3.1%
% of inhibition ([3]; at 5 µM): 3%
Compound: CC[C@@H]1[C@H](F)C(=O)N[C@@H]1COc1nccc2cc(C(N)=O)c(OC)cc12 [ZIMLOVISERTIB]

IC50 [4]: 420 nM
Compound: CN(C)CC#Cc1ccc2[nH]c3c(c2c1)-c1nc(N)ncc1CCC3

IC50 [5]: > 30000 nM
Compound: CCC(=O)N1CC[C@H](Nc2ncnc3c2CN(c2cnc(OC)c(C(F)(F)F)c2)CC3)C1 [LENIOLISIB]

% of inhibition [6]: -1.89%
Compound: Cn1cc(-n2cnc3c(NCc4nc5cc(Cl)c(Cl)cc5[nH]4)nc(N4CCOCC4)nc32)cn1

Compound: COCC(=O)NC/C=C/c1ccc2ncnc(Nc3ccc(Oc4ccc(C)nc4)c(C)c3)c2c1 [CP-724714]
% of control [7]: 97%
% of control [8]: 89%

Compound: Nc1cnc(N2CCc3cc(S(=O)(=O)Nc4c(F)cc(Cl)cc4F)cc(N4CCCC4=O)c32)nc1 [TP-020n]
% of control [9]: 100%
% of control [10]: 100%

Compound: C=CC(=O)Nc1cc(-n2c(=O)ccc3cnc4ccc(-c5ccc(NS(C)(=O)=O)cc5)cc4c32)ccc1C
% of control ([11]; at 1 µM): 100%
% of control ([11]; at 10 µM): 97%

Compound: N#Cc1cccc(-c2c[nH]c3ncnc(N4CCOCC4)c23)c1
% of control [12]: 75%
